The values that follow come from patent publication US20090299044A1 (priority 2006, published 2009).

Bridge positions count the residues as written; N and C are the ends. Square brackets hold non-standard residues; d marks the D form. Peptide text beside a SMILES is read from it. 1Nal = N[C@@H](Cc1cccc2ccccc12)C(=O)O

Common to all, as to assay: cell-based
One assay has as its target T1, human Kv1.3 (CHO) (Homo sapiens, UniProt P22001).
T1 construct: expressed in transfected cells; host or cells: CHO

The target in a further assay is T2, human Kv1.1 (HEK293) (Homo sapiens, UniProt Q09470).
T2 construct: expressed in transfected cells; host or cells: HEK293

The next assay deals with human Kv1.3 channel (Homo sapiens, UniProt P22001). Format: cell-based.
Sequence of human Kv1.3 channel (P22001 whole entry): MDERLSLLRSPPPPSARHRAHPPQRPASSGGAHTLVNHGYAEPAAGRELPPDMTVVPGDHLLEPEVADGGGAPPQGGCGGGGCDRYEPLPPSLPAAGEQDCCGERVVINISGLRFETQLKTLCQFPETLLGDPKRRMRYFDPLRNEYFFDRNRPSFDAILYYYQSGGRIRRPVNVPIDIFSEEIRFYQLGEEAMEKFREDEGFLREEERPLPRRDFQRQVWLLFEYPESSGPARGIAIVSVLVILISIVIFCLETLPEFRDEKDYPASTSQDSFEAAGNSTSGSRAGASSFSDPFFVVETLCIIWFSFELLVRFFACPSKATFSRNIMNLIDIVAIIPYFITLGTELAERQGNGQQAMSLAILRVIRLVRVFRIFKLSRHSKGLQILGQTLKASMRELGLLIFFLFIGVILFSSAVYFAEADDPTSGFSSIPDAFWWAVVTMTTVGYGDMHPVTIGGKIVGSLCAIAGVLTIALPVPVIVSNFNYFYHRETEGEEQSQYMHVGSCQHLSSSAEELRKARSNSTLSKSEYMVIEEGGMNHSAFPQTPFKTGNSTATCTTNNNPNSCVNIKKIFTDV

T2 sequence (Q09470 whole entry): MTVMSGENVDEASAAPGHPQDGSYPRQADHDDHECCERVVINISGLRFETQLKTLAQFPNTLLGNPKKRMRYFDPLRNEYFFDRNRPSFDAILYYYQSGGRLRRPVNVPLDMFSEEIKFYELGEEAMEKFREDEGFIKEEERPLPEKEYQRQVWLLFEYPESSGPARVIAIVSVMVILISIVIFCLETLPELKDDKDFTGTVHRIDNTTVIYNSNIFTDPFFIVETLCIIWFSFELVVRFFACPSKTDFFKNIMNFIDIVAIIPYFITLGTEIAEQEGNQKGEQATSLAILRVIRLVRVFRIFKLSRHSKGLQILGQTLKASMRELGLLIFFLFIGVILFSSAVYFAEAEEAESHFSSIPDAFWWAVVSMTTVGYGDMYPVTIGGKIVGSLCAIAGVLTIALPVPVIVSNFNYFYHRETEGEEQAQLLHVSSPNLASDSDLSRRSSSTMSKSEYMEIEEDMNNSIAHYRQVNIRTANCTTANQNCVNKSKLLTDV
T1 sequence (P22001 whole entry): as the sequence (P22001 whole entry) above

What is called IC50 is the midpoint of a concentration-inhibition curve. Take `CC[C@H](C)[C@@H]1NC(=O)[C@H](CCCCN)NC(=O)[C@@H](NC(=O)[C@H](CCCCN)NC(=O)[C@@H](NC(=O)[C@H](CC(N)=O)NC(=O)[C@@H](NC(=O)[C@@H](NC(=O)[C@@H](NC(=O)CN)C(C)C)[C@@H](C)CC)[C@@H](C)CC)C(C)C)CSSC[C@@H]2NC(=O)[C@H](CCCCN)NC(=O)CNC(=O)[C@H](Cc3ccccc3)NC(=O)[C@H](Cc3cccc4ccccc34)NC(=O)[C@H](CCSC)NC(=O)CNC(=O)[C@H](C)NC(=O)[C@H](CCCCN)NC(=O)[C@H](CCCCN)NC(=O)[C@@H]3CSSC[C@@H](C(=O)N[C@H](C(=O)N4CCC[C@H]4C(=O)N[C@@H](CCCCN)C(=O)O)[C@@H](C)O)NC(=O)[C@H](Cc4c[nH]cn4)NC(=O)[C@H](CSSC[C@H](NC(=O)[C@H](CCC(N)=O)NC(=O)[C@H](CCCNC(=N)N)NC(=O)[C@H](CO)NC1=O)C(=O)N[C@@H](CC(C)C)C(=O)N[C@@H](CCC(=O)O)C(=O)N1CCC[C@H]1C(=O)N3)NC(=O)[C@H](CCCCN)NC(=O)CNC(=O)[C@H](CC(N)=O)NC(=O)[C@H](CCSC)NC2=O` [R24Nal] (H-GVIINVKCKISRQCLEPCKKAGM[1Nal]FGKCMNGKCHCTPK-OH; disulfide 8-28, 14-33, 18-35): the values for the IC50 at human Kv1.3 (CHO) and at human Kv1.1 (HEK293) were 45.3 pM and 2.85 pM, respectively.
For `CC[C@H](C)[C@@H]1NC(=O)[C@H](CCCCN)NC(=O)[C@@H](NC(=O)[C@H](CCCCN)NC(=O)[C@@H](NC(=O)[C@H](CC(N)=O)NC(=O)[C@@H](NC(=O)[C@@H](NC(=O)[C@@H](NC(=O)CN)C(C)C)[C@@H](C)CC)[C@@H](C)CC)C(C)C)CSSC[C@@H]2NC(=O)[C@H](CCCCN)NC(=O)CNC(=O)[C@H](Cc3ccccc3)NC(=O)[C@H](CCCNC(=N)N)NC(=O)[C@H](CCSC)NC(=O)CNC(=O)[C@H](C)NC(=O)[C@H](CCCCN)NC(=O)[C@H](CCCCN)NC(=O)[C@@H]3CSSC[C@@H](C(=O)N[C@H](C(=O)N4CCC[C@H]4C(=O)N[C@@H](CCCCN)C(=O)O)[C@@H](C)O)NC(=O)[C@H](Cc4c[nH]cn4)NC(=O)[C@H](CSSC[C@H](NC(=O)[C@H](CCC(N)=O)NC(=O)[C@H](CCCNC(=N)N)NC(=O)[C@H](C)NC1=O)C(=O)N[C@@H](CC(C)C)C(=O)N[C@@H](CCC(=O)O)C(=O)N1CCC[C@H]1C(=O)N3)NC(=O)[C@H](CCCCN)NC(=O)CNC(=O)[C@H](CC(N)=O)NC(=O)[C@H](CCSC)NC2=O` [S11A] (H-GVIINVKCKIARQCLEPCKKAGMRFGKCMNGKCHCTPK-OH; disulfide 8-28, 14-33, 18-35), in that order: 40.8 pM and 113 pM.
The matching figures for `CC[C@H](C)[C@@H]1NC(=O)[C@H](CCCCN)NC(=O)[C@@H](NC(=O)[C@H](CCCCN)NC(=O)[C@@H](NC(=O)[C@H](CC(N)=O)NC(=O)[C@@H](NC(=O)[C@@H](NC(=O)[C@@H](NC(=O)CN)C(C)C)[C@@H](C)CC)[C@@H](C)CC)C(C)C)CSSC[C@@H]2NC(=O)[C@H](CCCCN)NC(=O)CNC(=O)[C@H](Cc3ccccc3)NC(=O)[C@H](CCCNC(=N)N)NC(=O)[C@H](CCSC)NC(=O)CNC(=O)[C@H](C)NC(=O)[C@H](CCCCN)NC(=O)[C@H](CCCCN)NC(=O)[C@@H]3CSSC[C@@H](C(=O)N[C@@H](CCCNC(=N)N)C(=O)N4CCC[C@H]4C(=O)N[C@@H](CCCCN)C(=O)O)NC(=O)[C@H](Cc4c[nH]cn4)NC(=O)[C@H](CSSC[C@H](NC(=O)[C@H](CCC(N)=O)NC(=O)[C@H](CCCNC(=N)N)NC(=O)[C@H](CO)NC1=O)C(=O)N[C@@H](CC(C)C)C(=O)N[C@@H](CCC(=O)O)C(=O)N1CCC[C@H]1C(=O)N3)NC(=O)[C@H](CCCCN)NC(=O)CNC(=O)[C@H](CC(N)=O)NC(=O)[C@H](CCSC)NC2=O` [T36R] (H-GVIINVKCKISRQCLEPCKKAGMRFGKCMNGKCHCRPK-OH; disulfide 8-28, 14-33, 18-35): 1310 pM and 26.6 pM.
For `CC[C@H](C)[C@@H]1NC(=O)[C@H](CCCCN)NC(=O)[C@@H](NC(=O)[C@H](CCCCN)NC(=O)[C@@H](NC(=O)[C@H](CC(N)=O)NC(=O)[C@@H](NC(=O)[C@@H](NC(=O)[C@H](CCC(=O)O)NC(=O)CN)[C@@H](C)CC)[C@@H](C)CC)C(C)C)CSSC[C@@H]2NC(=O)[C@H](CCCCN)NC(=O)CNC(=O)[C@H](Cc3ccccc3)NC(=O)[C@H](CCCNC(=N)N)NC(=O)[C@H](CCSC)NC(=O)CNC(=O)[C@H](C)NC(=O)[C@H](CCCCN)NC(=O)[C@H](CCCCN)NC(=O)[C@@H]3CSSC[C@@H](C(=O)N[C@H](C(=O)N4CCC[C@H]4C(=O)N[C@@H](CCCCN)C(=O)O)[C@@H](C)O)NC(=O)[C@H](Cc4c[nH]cn4)NC(=O)[C@H](CSSC[C@H](NC(=O)[C@H](CCC(N)=O)NC(=O)[C@H](CCCNC(=N)N)NC(=O)[C@H](CO)NC1=O)C(=O)N[C@@H](CC(C)C)C(=O)N[C@@H](CCC(=O)O)C(=O)N1CCC[C@H]1C(=O)N3)NC(=O)[C@H](CCCCN)NC(=O)CNC(=O)[C@H](CC(N)=O)NC(=O)[C@H](CCSC)NC2=O` [V2E] (H-GEIINVKCKISRQCLEPCKKAGMRFGKCMNGKCHCTPK-OH; disulfide 8-28, 14-33, 18-35), in that order: 36.2 pM and 35 pM.
For the compound `CC[C@H](C)[C@@H]1NC(=O)[C@H](CCCCN)NC(=O)[C@@H](NC(=O)[C@H](CCCCN)NC(=O)[C@@H](NC(=O)[C@H](CC(N)=O)NC(=O)[C@@H](NC(=O)[C@@H](NC(=O)[C@H](CCCNC(=N)N)NC(=O)CN)[C@@H](C)CC)[C@@H](C)CC)C(C)C)CSSC[C@@H]2NC(=O)[C@H](CCCCN)NC(=O)CNC(=O)[C@H](Cc3ccccc3)NC(=O)[C@H](CCCNC(=N)N)NC(=O)[C@H](CCSC)NC(=O)CNC(=O)[C@H](C)NC(=O)[C@H](CCCCN)NC(=O)[C@H](CCCCN)NC(=O)[C@@H]3CSSC[C@@H](C(=O)N[C@H](C(=O)N4CCC[C@H]4C(=O)N[C@@H](CCCCN)C(=O)O)[C@@H](C)O)NC(=O)[C@H](Cc4c[nH]cn4)NC(=O)[C@H](CSSC[C@H](NC(=O)[C@H](CCC(N)=O)NC(=O)[C@H](CCCNC(=N)N)NC(=O)[C@H](CO)NC1=O)C(=O)N[C@@H](CC(C)C)C(=O)N[C@@H](CCC(=O)O)C(=O)N1CCC[C@H]1C(=O)N3)NC(=O)[C@H](CCCCN)NC(=O)CNC(=O)[C@H](CC(N)=O)NC(=O)[C@H](CCSC)NC2=O` [V2R] (H-GRIINVKCKISRQCLEPCKKAGMRFGKCMNGKCHCTPK-OH; disulfide 8-28, 14-33, 18-35), the IC50 on human Kv1.3 (CHO) was found to be 133 pM; on human Kv1.1 (HEK293), 25.8 pM.
For `CC[C@H](C)[C@@H]1NC(=O)[C@H](CCCCN)NC(=O)[C@@H](NC(=O)[C@H](CCCCN)NC(=O)[C@H](C)NC(=O)[C@H](CC(N)=O)NC(=O)[C@@H](NC(=O)[C@@H](NC(=O)[C@@H](NC(=O)CN)C(C)C)[C@@H](C)CC)[C@@H](C)CC)CSSC[C@@H]2NC(=O)[C@H](CCCCN)NC(=O)CNC(=O)[C@H](Cc3ccccc3)NC(=O)[C@H](CCCNC(=N)N)NC(=O)[C@H](CCSC)NC(=O)CNC(=O)[C@H](C)NC(=O)[C@H](CCCCN)NC(=O)[C@H](CCCCN)NC(=O)[C@@H]3CSSC[C@@H](C(=O)N[C@H](C(=O)N4CCC[C@H]4C(=O)N[C@@H](CCCCN)C(=O)O)[C@@H](C)O)NC(=O)[C@H](Cc4c[nH]cn4)NC(=O)[C@H](CSSC[C@H](NC(=O)[C@H](CCC(N)=O)NC(=O)[C@H](CCCNC(=N)N)NC(=O)[C@H](CO)NC1=O)C(=O)N[C@@H](CC(C)C)C(=O)N[C@@H](CCC(=O)O)C(=O)N1CCC[C@H]1C(=O)N3)NC(=O)[C@H](CCCCN)NC(=O)CNC(=O)[C@H](CC(N)=O)NC(=O)[C@H](CCSC)NC2=O` [V6A] (H-GVIINAKCKISRQCLEPCKKAGMRFGKCMNGKCHCTPK-OH; disulfide 8-28, 14-33, 18-35), in that order: 174 pM and 12.8 pM.
The matching figures for `CC[C@H](C)[C@@H]1NC(=O)[C@H](CCCCN)NC(=O)[C@@H](NC(=O)[C@H](CCCCN)NC(=O)[C@H](CCC(=O)O)NC(=O)[C@H](CC(N)=O)NC(=O)[C@@H](NC(=O)[C@@H](NC(=O)[C@@H](NC(=O)CN)C(C)C)[C@@H](C)CC)[C@@H](C)CC)CSSC[C@@H]2NC(=O)[C@H](CCCCN)NC(=O)CNC(=O)[C@H](Cc3ccccc3)NC(=O)[C@H](CCCNC(=N)N)NC(=O)[C@H](CCSC)NC(=O)CNC(=O)[C@H](C)NC(=O)[C@H](CCCCN)NC(=O)[C@H](CCCCN)NC(=O)[C@@H]3CSSC[C@@H](C(=O)N[C@H](C(=O)N4CCC[C@H]4C(=O)N[C@@H](CCCCN)C(=O)O)[C@@H](C)O)NC(=O)[C@H](Cc4c[nH]cn4)NC(=O)[C@H](CSSC[C@H](NC(=O)[C@H](CCC(N)=O)NC(=O)[C@H](CCCNC(=N)N)NC(=O)[C@H](CO)NC1=O)C(=O)N[C@@H](CC(C)C)C(=O)N[C@@H](CCC(=O)O)C(=O)N1CCC[C@H]1C(=O)N3)NC(=O)[C@H](CCCCN)NC(=O)CNC(=O)[C@H](CC(N)=O)NC(=O)[C@H](CCSC)NC2=O` [V6E] (H-GVIINEKCKISRQCLEPCKKAGMRFGKCMNGKCHCTPK-OH; disulfide 8-28, 14-33, 18-35): 17.7 pM and 2.43 pM.
For “Fc-L10-OSK1[K7S]: OSK1-peptibody with lysine to serine substitution at position 7”, the “fold difference in Kv1.3 potency compared to Fc-L10-OSK1” value with human Kv1.3 channel came out at 2 fold.
